For assay [1], the system named is Proteus vulgaris. The assay is described as follows: Antibacterial activity against Proteus vulgaris by well diffusion method. The format is functional.
The subject of assay [2] is Proteus mirabilis. Kind of assay: Antibacterial activity against Proteus mirabilis by well diffusion method. In kind it is functional.
Assay [3] has as its system Staphylococcus aureus. The assay is described as follows: Antibacterial activity against Staphylococcus aureus by well diffusion method. In kind it is functional. Background: In agar diffusion tests the substance spreads into inoculated agar from a disc or well.
The test system of assay [4] is Salmonella typhi. Kind of assay: Antibacterial activity against Salmonella typhi by well diffusion method. Conditions: Salmonella enterica. In kind it is functional, Salmonella enterica subsp. enterica serovar Typhi.
The test system of assay [5] is Fusarium oxysporum. The assay is described as follows: Antifungal activity against Fusarium oxysporum by poison food technique. In kind it is functional.
Assay [6] concerns Macrophomina phaseolina. Kind of assay: Antifungal activity against Macrophomina phaseolina by poison food technique. The format is functional.

≈ marks a conversion by molar mass, not a printed value.

Turning to `CN(C)c1ccc([C@H]2C3CCCN3[C@@]3(C(=O)Nc4ccccc43)[C@]23CCC2c4ccccc4NC2C3=O)cc1` (some centres not stated), the MIC in assay [1] was determined as 45 µg/mL (≈ 86.8 µM); in assay [2] it was 50 µg/mL (≈ 96.4 µM); in assay [3] it was 35 µg/mL (≈ 67.5 µM); in assay [4] it was 35 µg/mL (≈ 67.5 µM); in assay [5], 150 µg/mL (≈ 289 µM); in assay [6], 75 µg/mL (≈ 145 µM).

`O=C1C2Nc3ccccc3C2CC[C@@]12[C@@H](c1ccc([N+](=O)[O-])cc1)C1CCCN1[C@@]21C(=O)Nc2ccccc21` (some centres not stated): the MIC in assay [1] came to 35 µg/mL (≈ 67.2 µM); in assay [2], 55 µg/mL (≈ 106 µM); in assay [3] it was 25 µg/mL (≈ 48 µM); in assay [4], 40 µg/mL (≈ 76.8 µM); in assay [5], 75 µg/mL (≈ 144 µM); in assay [6], 100 µg/mL (≈ 192 µM).

Turning to `CN(C)[C@@H]1C(O)=C(C(N)=O)C(=O)[C@@]2(O)C(O)=C3C(=O)c4c(O)cccc4[C@@](C)(O)[C@H]3C[C@@H]12` [TETRACYCLINE], the MIC is 15 µg/mL (≈ 33.8 µM) in assay [1], 20 µg/mL (≈ 45 µM) in assay [2], 10 µg/mL (≈ 22.5 µM) in assay [3] and 15 µg/mL (≈ 33.8 µM) in assay [4].

As to `O=C1C2Nc3ccccc3C2CC[C@@]12[C@@H](c1ccc(Br)cc1)C1CCCN1[C@@]21C(=O)Nc2ccccc21` (some centres not stated), the MIC came out at 25 µg/mL (≈ 45.1 µM) in assay [1]; 30 µg/mL (≈ 54.1 µM) in assay [2]; 45 µg/mL (≈ 81.2 µM) in assay [3]; 30 µg/mL (≈ 54.1 µM) in assay [4]; 50 µg/mL (≈ 90.2 µM) in assay [5]; 25 µg/mL (≈ 45.1 µM) in assay [6].

Turning to `O=C1C2Nc3ccccc3C2CC[C@@]12[C@@H](c1ccccc1)C1CCCN1[C@@]21C(=O)Nc2ccccc21` (some centres not stated), the minimal inhibitory concentration (MIC) in assay [1] is 30 µg/mL (≈ 63.1 µM); in assay [2], 55 µg/mL (≈ 116 µM); in assay [4], 20 µg/mL (≈ 42.1 µM); in assay [5], 125 µg/mL (≈ 263 µM); in assay [6], 50 µg/mL (≈ 105 µM).

Take `COC(=O)Nc1nc2ccccc2[nH]1` [CARBENDAZIM]: the MIC turned out to be 18 µg/mL (≈ 94.1 µM) in assay [5] and 15 µg/mL (≈ 78.5 µM) in assay [6].

Take `O=C1C2Nc3ccccc3C2CC[C@@]12[C@@H](c1ccc(Cl)cc1)C1CCCN1[C@@]21C(=O)Nc2ccccc21` (some centres not stated): the MIC is 10 µg/mL (≈ 19.6 µM) in assay [1]; 35 µg/mL (≈ 68.6 µM) in assay [2]; 20 µg/mL (≈ 39.2 µM) in assay [3]; 30 µg/mL (≈ 58.8 µM) in assay [4]; 125 µg/mL (≈ 245 µM) in assay [5]; 75 µg/mL (≈ 147 µM) in assay [6].

For the compound `COc1ccc([C@H]2C3CCCN3[C@@]3(C(=O)Nc4ccccc43)[C@]23CCC2c4ccccc4NC2C3=O)cc1` (some centres not stated), the minimum inhibitory concentration (MIC) in assay [1] worked out at 15 µg/mL (≈ 29.7 µM); in assay [2] it was 25 µg/mL (≈ 49.4 µM); in assay [3], 40 µg/mL (≈ 79.1 µM); in assay [4], 45 µg/mL (≈ 89 µM); in assay [5] it was 75 µg/mL (≈ 148 µM); in assay [6] it was 25 µg/mL (≈ 49.4 µM).

Consider `Cc1ccc([C@H]2C3CCCN3[C@@]3(C(=O)Nc4ccccc43)[C@]23CCC2c4ccccc4NC2C3=O)cc1` (some centres not stated), for which the MIC in assay [1] is 40 µg/mL (≈ 81.7 µM); in assay [2] it was 65 µg/mL (≈ 133 µM); in assay [3], 45 µg/mL (≈ 91.9 µM); in assay [4], 35 µg/mL (≈ 71.5 µM); in assay [5] it was 75 µg/mL (≈ 153 µM); in assay [6] it was 50 µg/mL (≈ 102 µM).

As usually defined, the MIC is the smallest concentration in the dilution series that meets the test's criterion for growth inhibition. Read a high MIC as a need for much substance.

The record behind these values is ChEMBL document CHEMBL1143903, “Synthesis of novel spiropyrrolizidines as potent antimicrobial agents for human and plant pathogens” (2008).
